From patent US20030170890A1, “Pathologically modified myocardial cell, production and use thereof” (priority 1999, published 2003)
No end group written: not given here.

What was measured:
Type in all cases: cell-based
[1] = system: neonatal rat cardiomyocytes; test: Stimulation of neonatal cardiomyocytes by phorbol ester, DCMAG-1 localization visually classified and counted; conditions: for % dotted pattern / % filamentous pattern / % in the sarcomere: 48 hours, ±SEM
Experimental: In these experiments, the cardiomyocytes were prepared as described above and seeded onto cover glasses. Stimulation with various concentrations of PMA was carried out for 48 hours, and the cells were fixed, stained as described above and investigated for DCMAG-1 translocation. The cells were visually classified and counted.

Rat cardiomyocytes = test: Localization of DCMAG-1 after PMA or triple stimulation (colocalization with α-actinin / MHC); conditions: double staining with α-actinin or MHC
Experimental: Since PMA brings about translocation of DCMAG-1 into the sarcomeres just like activation of three signal transduction pathways via their receptors, the sarcomeric structures into which DCMAG-1 was translocated with PMA or triple stimulation was investigated. Colocalization experiments were carried out for this purpose. Rat cardiomyocytes were seeded as described above on cover glasses, and correspondingly stimulated, fixed and stained. With the stains, anti-DCMAG-1 antibody (polyclonal) was mixed with either monoclonal α-actinin (Sigma, 1:500) or monoclonal anti-myosin (heavy chain, MHC, Sigma, 1:500). The secondary antibodies used were FITC-anti-mouse (1:250) and Texas Red-anti-rabbit (1:50; both from Dianova).
Evaluation took place with the aid of a fluorescence microscope, a Fuji-CCD camera and Aida software or with the aid of a confocal microscope (Pascal from Zeiss) and LSM software (Zeiss).

[2] = system: neonatal rat cardiomyocytes; test: Stimulation of isolated neonatal rat cardiomyocytes, recruitment of DCMAG-1 into the sarcomere (immunofluorescence); conditions: for Sarcomere (recruitment of DCMAG-1), 1 × stimulation: 48 hours; for DCMAG-1 stain pattern of stimulated cells (in words): immunofluorescence, anti-DCMAG-1 antibody
Text: Primary cardiomyocytes were isolated from neonatal rats to carry out a hypertrophy experiment. The rats were from one to seven days old and were sacrificed by cervical dislocation. To isolate the cardiomyocytes, the ventricles of the contracting hearts were removed and dissociated using the “Neonatal Cardiomyocyte Isolation System” (Worthington Biochemicals Corporation, Lakewood, N.J.). […] The next day, the trypsin treatment was stopped by adding a trypsin inhibitor, and then a collagenase treatment was carried out at 37° C. for 45 minutes. The cells were dissociated by pipetting, passed through a “cell strainer” (70 μm) and centrifuged at 60×g twice for 5 min. The cell pellet was then taken up in 20 ml of conventional adhesion medium. Seeding took place at a density of 6×10^4 cells/cm^2 on gelatin-coated (Sigma, Deisenhofen) tissue culture dishes or cover glasses. The next morning, the medium was removed by aspiration and, after washing with DMEM (conventional cell culture medium) twice, replaced by cultivation medium.
The cells were stimulated two to six hours after the medium was changed. This was done by treating the cardiomyocytes with various stimulants or combinations of stimulants (see Table 1) for 48 hours, followed by analysis. It was possible to observe the progress of a single stimulation on the basis of the morphological changes in the cells (hypertrophy). Besides the morphological changes, immunofluorescence analyses were also used to determine hypertrophy parameters (DCMAG-1 recruitment).
For the immunofluorescence analysis, the stimulated cardiomyocytes were washed twice with cold PBS and fixed with 3% paraformaldehyde solution in PBS for 20 minutes. After washing again with cold PBS, the cells were incubated twice with 100 mM ammonium chloride in PBS, for 10 min each time, at room temperature. This was followed by a further washing step with cold PBS and incubation with 0.2% Triton-X 100 in PBS at room temperature for 5 min. Washing twice with 0.1% gelatin in PBS was followed by incubation with the first antibody at 37° C. in a “humidity chamber” known to the skilled worker. The first antibody (against the second domain of DCMAG-1) was diluted 1/500 in incubation solution (0.5% Tween-20; 0.5% BSA; in PBS). This was followed after one hour by three washing steps with PBS at room temperature for 5 min each time. The second antibody (obtained from goat, directed against rabbit, Cy3-coupled; Dianova, Hamburg) was diluted 1/200 in incubation solution and likewise incubated with the fixed cells at 37° C. for one hour. After three further washing steps with PBS at room temperature for 5 min each time, and a brief immersion in deionized water, the preparations were covered with a layer of Histosafe (Linaris, Wertheim-Bettingen) and applied to slides. Evaluation took place under a microscope (Axiovert 100S, Cy3 filter set, Zeiss, Göttingen).
Thus, for quantitative evaluation of these stimulation experiments, the recruitment of DCMAG-1 into the sarcomere was measured and categorized as follows: […]

[3] = system: cardiomyocytes from the neonatal rat; test: Effect of inhibitors on DCMAG-1 translocation in the immunofluorescence test; conditions: cells stimulated with LIF; for effect on translocation of DCMAG-1 into the sarcomere (in words): ISO and ET-1; for % dotted pattern / % filamentous pattern / % in Z-bands: ISO and ET-1 (single dosage) 48 h, without or with 30 μM LY294002, 50 μM SB 203580, 15 nM Go 6976, 50 μM PD98059, ±SEM
Experimental: Neonatal rat cardiomyocytes were prepared as in Example 3 and seeded in a density of 1×10^5 cells per 1.5 cm well (reaction chamber in a cell culture dish). The cell culture dishes contained 1.5 cm cover glasses (Schubert und Weiβ) coated with 1% gelatin solution. The cells were incubated after 24 hours with DMEM and subsequently in maintenance medium with or without stimulus (LIF/ISO and ET-1, concentration as above for single dosage) for 48 hours.
In order to determine the signal transduction pathways required for translocation of DCMAG-1, the stimulated cells were incubated with inhibitors, namely 30 μM LY294002 (Sigma), 50 μM SB 203580 (Sigma), 15 nM Go 6976 (Alexis) or 50 μM PD98059 (NEB) for 48 h (after 24 h, the medium and inhibitors were renewed because the activity of the inhibitors was limited to 24 h in aqueous solution).
After 48 h, the cells were fixed with 4% paraformaldehyde, permeabilized with 0.2% Triton-X100 and stained with anti-DCMAG (polyclonal, own production, 1:500) or α-actinin (as control, Sigma, 1:500) and visualized with anti-mouse or anti-rabbit Cy3 (Jackson Labs, USA) in immunofluorescence. In order to measure the effect of the inhibitors, the cells were visually classified and counted.

[4] = single dosage: PE 100 μM, LIF 1 ng/ml, ET-1 10 nM, ISO 10 μM, IN 100 nM

Compound	Sarcomere (recruitment of DCMAG-1), 1 × stimulation ([2]; 2 × single dosage)	Sarcomere (recruitment of DCMAG-1), 1 × stimulation [2, 4]	% dotted pattern [3] [%]	% filamentous pattern [3] [%]	% in Z-bands [3] [%]	Sarcomere (recruitment of DCMAG-1), 1 × stimulation ([2]; 3 × single dosage)	Sarcomere (recruitment of DCMAG-1), 1 × stimulation ([2]; 4 × single dosage)	DCMAG-1 stain pattern of stimulated cells (in words) [2]	other results
CCCCCCCCCCCCCC(=O)O[C@@H]1[C@@H](C)[C@@]2(O)[C@@H](C=C(CO)C[C@]3(O)C(=O)C(C)=C[C@@H]23)[C@@H]2C(C)(C)[C@]12OC(C)=O [PMA, phorbol myristate acetate]									translocation of DCMAG-1 protein (in words) ([1]; 1 nM PMA): translocated into the sarcomere; % dotted pattern ([1]; 1 nM PMA): 46.0 ± 2.0%; % filamentous pattern ([1]; 1 nM PMA): 20.0 ± 1.0%; % in the sarcomere ([1]; 1 nM PMA): 34.0 ± 3.0%; % dotted pattern ([1]; 100 nM PMA): 47.0 ± 4.0%; % filamentous pattern ([1]; 100 nM PMA): 13.0 ± 2.0%; % in the sarcomere ([1]; 100 nM PMA): 40.0 ± 2.0%; sarcomeric structure into which DCMAG-1 is translocated (Rat cardiomyocytes): translocates into the M-line
insulin	(−) (fewer than 2 cells per cover glass)	(−) (fewer than 2 cells per cover glass)							
Cn1c2ccccc2c2c3c(c4c5ccccc5n(CCC#N)c4c21)CNC3=O [Gö, Gö 6976]			29.0 ± 2.1	49.0 ± 0.0	22.0 ± 2.1				effect on translocation of DCMAG-1 into the sarcomere (in words) [3]: reducing the translocation
CC(C)NCC(O)c1ccc(O)c(O)c1 (stereo not drawn) [ISO, isoproterenol]	(−) (fewer than 2 cells per cover glass)	(−) (fewer than 2 cells per cover glass)				(+) (2 to 5 cells per cover glass)	(+) (2 to 5 cells per cover glass)		Sarcomere (recruitment of DCMAG-1), 1 × stimulation ([2]; 5 × single dosage): (+) (2 to 5 cells per cover glass); recruitment of DCMAG-1 into the sarcomere (in words, summary of Table 1) ([2]; ISO: high concentrations): slight effect
COc1cccc(-c2cc(=O)c3ccccc3o2)c1N [PD, PD98059]			58.5 ± 10.7	31.6 ± 7.4	10.1 ± 3.4				effect on translocation of DCMAG-1 into the sarcomere (in words) [3]: reducing the translocation
O=c1cc(N2CCOCC2)oc2c(-c3ccccc3)cccc12 [LY, LY294002]			46.6 ± 5.3	41.2 ± 4.1	11.3 ± 2.0				
CNC[C@H](O)c1cccc(O)c1 [PE, phenylephrine]	(−) (fewer than 2 cells per cover glass)	(−) (fewer than 2 cells per cover glass)				(−) (fewer than 2 cells per cover glass)	(−) (fewer than 2 cells per cover glass)	distributed uniformly over the sarcoplasm	Sarcomere (recruitment of DCMAG-1), 1 × stimulation ([2]; 5 × single dosage): (−) (fewer than 2 cells per cover glass)
C[S+]([O-])c1ccc(-c2nc(-c3ccncc3)c(-c3ccc(F)cc3)[nH]2)cc1 (stereo not drawn) [SB, SB 203580]			22.5 ± 5.3	35.5 ± 0.3	41.0 ± 4.9				
LIF: cytokine acting via the LIF receptor, assigned to the interleukin-6 family	(−) (fewer than 2 cells per cover glass)	(−) (fewer than 2 cells per cover glass)						distributed uniformly over the sarcoplasm	shape of stimulated cells ([2]; single stimulation): elongate shape
ET-1: hormone / signal molecule stimulating the ETA and ETB endothelin receptors (CSCSSLMDKECVYFCHLDIIW; not fully specified (bridges); ends and bridges not checked; UniProt P05305 53-73, looked up)	(−) (fewer than 2 cells per cover glass)	(−) (fewer than 2 cells per cover glass)				(−) (fewer than 2 cells per cover glass)	(−) (fewer than 2 cells per cover glass)	filamentous structures	
